Data taken from the supplement of paper PMC4862054.
Values joined by “and” are separate entries in the source; they are usually repeats but may differ in a detail not shown here. Identical values can stand only once.

Assays:
MDA-MB-468 [1] = test: drug sensitivity score (DSS), CellTiter-Glo (DSS (AUC-based score)); higher = stronger drug effect (viability inhibition or cytotoxicity); extreme values may be limits of the assay; conditions: incubation time: 72 h
Method in brief: (§1)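 For 72 h, breast cancer cell lines seeded at 20 µl suspension per well in 384-well plates were incubated with compound at 5 concentrations in 10-fold steps spanning a 10,000-fold range that differed by compound. The first reading was CellTox Green fluorescence at 485/520 nm, and the second was CellTiter-Glo luminescence after 10 min at room temperature. Both were normalised per plate to 0.1 % DMSO and a positive kill control, and the drug sensitivity score was obtained from the area under the fitted dose-response curve.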

HCC1599 [2] = test: as above; conditions: incubation time: 72 h
Method in brief: as §1

CAL-85-1 [3] = test: as above; conditions: incubation time: 72 h
Method in brief: as §1

CAL-148 [4] = test: as above; conditions: incubation time: 72 h
Method in brief: as §1

MDA-MB-436 [5] = test: as above; conditions: incubation time: 72 h
Method in brief: as §1

SK-BR-3 [6] = test: as above; conditions: incubation time: 72 h
Method in brief: as §1

MDA-MB-231 [7] = test: as above; conditions: incubation time: 72 h
Method in brief: as §1

BT-474 [8] = test: as above; conditions: incubation time: 72 h
Method in brief: as §1

CAL-51 [9] = test: as above; conditions: incubation time: 72 h
Method in brief: as §1

MDA-MB-453 [10] = test: as above; conditions: incubation time: 72 h
Method in brief: as §1

MCF-10A = test: as above; conditions: incubation time: 72 h
Method in brief: as §1

HDQ-P1 [11] = test: as above; conditions: incubation time: 72 h
Method in brief: as §1

MDA-MB-468 [12] = test: normalised viability (% of control), CellTiter-Blue; higher = more viable cells (about 100 = DMSO control); conditions: 10 nM; incubation time: 72 h
Procedure: (§2)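 DSRT, CellTiter-Blue viability, 72 h incubation. Signal is normalised to DMSO and benzethonium chloride controls. Value is the normalised response at dose 3.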

HCC1599 [13] = test: as above; conditions: 10 nM; incubation time: 72 h
Procedure: as §2

CAL-85-1 [14] = test: as above; conditions: 1 nM; incubation time: 72 h
Procedure: as §2

BT-549 = test: as above; conditions: 10 nM; incubation time: 72 h
Procedure: as §2

CAL-148 [15] = test: as above; conditions: 1 nM; incubation time: 72 h
Procedure: as §2

HCC1937 = test: as above; conditions: 10 nM; incubation time: 72 h
Procedure: as §2

MDA-MB-436 [16] = test: as above; conditions: 10 nM; incubation time: 72 h
Procedure: as §2

DU-4475 = test: as above; conditions: 1 nM; incubation time: 72 h
Procedure: as §2

CAL-120 = test: as above; conditions: 10 nM; incubation time: 72 h
Procedure: as §2

SK-BR-3 [17] = test: as above; conditions: 10 nM; incubation time: 72 h
Procedure: as §2

MDA-MB-231 [18] = test: as above; conditions: 10 nM; incubation time: 72 h
Procedure: as §2

BT-474 [19] = test: as above; conditions: 10 nM; incubation time: 72 h
Procedure: as §2

CAL-51 [20] = test: as above; conditions: 1 nM; incubation time: 72 h
Procedure: as §2

MDA-MB-453 [21] = test: as above; conditions: 1 nM; incubation time: 72 h
Procedure: as §2

HDQ-P1 [22] = test: as above; conditions: 1 nM; incubation time: 72 h
Procedure: as §2

MFM-223 = test: as above; conditions: 10 nM; incubation time: 72 h
Procedure: as §2

Hs578T = test: as above; conditions: 10 nM; incubation time: 72 h
Procedure: as §2

| Structure (SMILES) | drug sensitivity score (MDA-MB-468 [1]) | drug sensitivity score (HCC1599 [2]) | drug sensitivity score (CAL-85-1 [3]) | drug sensitivity score (CAL-148 [4]) | drug sensitivity score (MDA-MB-436 [5]) | drug sensitivity score (SK-BR-3 [6]) | drug sensitivity score (MDA-MB-231 [7]) | drug sensitivity score (BT-474 [8]) | drug sensitivity score (CAL-51 [9]) | drug sensitivity score (MDA-MB-453 [10]) | drug sensitivity score (MCF-10A) | drug sensitivity score (HDQ-P1 [11]) | normalised viability (MDA-MB-468 [12]) | normalised viability (HCC1599 [13]) | normalised viability (CAL-85-1 [14]) | normalised viability (BT-549) | normalised viability (CAL-148 [15]) | normalised viability (HCC1937) | normalised viability (MDA-MB-436 [16]) | normalised viability (DU-4475) | normalised viability (CAL-120) | normalised viability (SK-BR-3 [17]) | normalised viability (MDA-MB-231 [18]) | normalised viability (BT-474 [19]) | normalised viability (CAL-51 [20]) | normalised viability (MDA-MB-453 [21]) | normalised viability (HDQ-P1 [22]) | normalised viability (MFM-223) | normalised viability (Hs578T) |
| --- | --- | --- | --- | --- | --- | --- | --- | --- | --- | --- | --- | --- | --- | --- | --- | --- | --- | --- | --- | --- | --- | --- | --- | --- | --- | --- | --- | --- | --- |
| CCN(CC)CCNC(=O)c1c(C)[nH]c(/C=C2\C(=O)Nc3ccc(F)cc32)c1C [Sunitinib] | 0 | 0 | 0 | 0 | 0 | 0 | 0 | 0 | 0 | 0 | 0 | 0 | 100% and 107% | 125% and 105% | 95.3% and 104% | 96.5% and 73.3% | 96.4% and 97.8% | 98.6% and 91% | 102% and 107% | 104% and 92% | 91.8% and 108% | 85.7% and 80.3% | 84.8% and 87.2% | 102% and 99.1% | 110% and 90.5% | 89.4% and 98.1% | 103% and 99.8% | 93.5% and 87.9% | 96.2% and 90.4% |
| CC[C@@]1(O)C(=O)OCc2c1cc1n(c2=O)Cc2cc3c(CN(C)C)c(O)ccc3nc2-1 [Topotecan] | 20.8 | 18.3 | 11.1 | 18.7 | 13.6 | 14.1 | 4.13 | 3.82 | 11 | 5.74 | 4.97 | 0 | 93% | 109% | 91.2% | 107% | 96.4% | 81.3% | 107% | 92.6% | 76.4% | 85.5% | 90.1% | 121% | 96.5% | 101% | 114% | 92.1% | 101% |
